Results taken from patent US20210278408A1, “METHODS OF TREATMENT OF CANCER WITH SUBSTITUTED PYRROLE AND PYRAZOLE COMPOUNDS AND DIAGNOSIS OF CANCERS SUSCEPTIBLE TO TREATMENT WITH SUBSTITUTED PYRROLE AND PYRAZOLE COMPOUNDS” (Bantam Pharmaceutical, LLC, priority 2018, published 2021).
Like-named read-outs stand apart in the source and are kept apart here.

System: 407 cancer cell lines
Assay: Cell viability of cancer cell lines (IC50), CellTiter-Glo Viability Assay, 96 h
Assay type: cell-based
Conditions: Homo sapiens, read-out: Absolute IC50
Procedure: Viability was determined by using the 50% inhibitory concentration (IC50) as determined with the CellTiter-Glo® Viability Assay (Promega).
Experiments were initiated by first thawing and equilibrating the CellTiter-Glo® Buffer to room temperature. The lyophilized CellTiter-Glo® Substrate was also equilibrated to room temperature. The lyophilized substrate was reconstituted with the CellTiter-Glo® buffer to form the CellTiter-Glo® Reagent.
Cells were harvested during the logarithmic growth period, counted, and the cell concentration adjusted to 4.44×10^4 cells/mL using culture medium.
Cells were allowed to grow overnight and the following day, the TO reading was obtained by adding 10 μL culture medium to each well of Plate A. The plate was allowed to equilibrate at room temperature for thirty minutes, after which 50 μL CellTiter-Glo® reagent was added to each well. The contents were mixed for 5 min on an orbital shaker to induce cell lysis. Plates were incubated for 20 minutes to stabilize the luminescent signal and the TO luminescence recorded.
Test plate B was incubated for 96 h in the humidified incubator at 37° C. with 5% CO2.
Following the incubation, the plate was equilibrated at room temperature for thirty minutes. CellTiter-Glo® (50 μL) was added to each well of the plate and contents mixed for five minutes on an orbital shaker to induce cell lysis. The luminescent signal was allowed to stabilize at room temperature for 20 minutes and the luminescence recorded.
IC50 (EC50) was calculated using a dose-response curve, fitted using a nonlinear regression model with a sigmoidal dose response. Survival rate was calculated using the formula:
The Surviving rate (%)=(LumTest article−LumMedium control)/(LumNon-treated−LumMedium control)×100%.
Absolute IC50 (EC50) was calculated according to the dose-response curve generated by the statistical software (GraphPad Prism 5.0).

## Cc1nn(-c2nc(-c3ccc(C(F)(F)F)cc3)c(SC(C)C)s2)c(C(=O)O)c1-c1cccc(F)c1 [Compound A197, 4-(3-fluorophenyl)-1-(5-(isopropylthio)-4-(4-(trifluoromethyl)phenyl)thiazol-2-yl)-3-methyl-1H-pyrazole-5-carboxylic acid]
NCI-H292, 96 h, NCI-H292 cells, 96 h
  IC50: > 30000 nM
NCI-H358, 96 h, NCI-H358 cells, 96 h
  IC50: 380 nM
NCI-H441, 96 h, NCI-H441 cells, 96 h
  IC50: > 30000 nM
NCI-H446, 96 h, NCI-H446 cells, 96 h
  IC50: > 30000 nM
NCI-H460, 96 h, NCI-H460 cells, 96 h
  IC50: > 30000 nM
NCI-H508, 96 h, NCI-H508 cells, 96 h
  IC50: 1330 nM
NCI-H520, 96 h, NCI-H520 cells, 96 h
  IC50: 300 nM
NCI-H522, 96 h, NCI-H522 cells, 96 h
  IC50: > 30000 nM
NCI-H526, 96 h, NCI-H526 cells, 96 h
  IC50: > 30000 nM
NCI-H596, NCI-H596
  IC50: > 30000 nM
NCI-H661, 96 h, NCI-H661 cells, 96 h
  IC50: > 30000 nM
NCI-H716, 96 h, NCI-H716 cells, 96 h
  IC50: 1570 nM
NCI-H727, 96 h, NCI-H727 cells, 96 h
  IC50: > 30000 nM
NCI-H747, 96 h, NCI-H747 cells, 96 h
  IC50: > 30000 nM
NCI-H929, NCI-H929
  IC50: 19000 nM
NCI-H1048, 96 h, NCI-H1048 cells, 96 h
  IC50: > 30000 nM
NCI-H1155, 96 h, NCI-H1155 cells, 96 h
  IC50: 460 nM
NCI-H1299, 96 h, NCI-H1299 cells, 96 h
  IC50: 780 nM
NCI-H1373, NCI-H1373
  IC50: 800 nM
NCI-H1395, NCI-H1395
  IC50: 370 nM
NCI-H1437, 96 h, NCI-H1437 cells, 96 h
  IC50: 310 nM
NCI-H1563, NCI-H1563
  IC50: > 30000 nM
NCI-H1573, 96 h, NCI-H1573 cells, 96 h
  IC50: 460 nM
NCI-H1581, 96 h, NCI-H1581 cells, 96 h
  IC50: > 30000 nM
NCI-H1648, 96 h, NCI-H1648 cells, 96 h
  IC50: > 30000 nM
NCI-H1650, NCI-H1650
  IC50: > 30000 nM
NCI-H1651, 96 h, NCI-H1651 cells, 96 h
  IC50: 860 nM
NCI-H1666, 96 h, NCI-H1666 cells, 96 h
  IC50: > 30000 nM
NCI-H1703, 96 h, NCI-H1703 cells, 96 h
  IC50: 360 nM
NCI-H1792, 96 h, NCI-H1792 cells, 96 h
  IC50: 1270 nM
NCI-H1838, 96 h, NCI-H1838 cells, 96 h
  IC50: > 30000 nM
NCI-H1975, 96 h, NCI-H1975 cells, 96 h
  IC50: > 30000 nM
NCI-H1993, 96 h, NCI-H1993 cells, 96 h
  IC50: 1200 nM
NCI-H2009, NCI-H2009
  IC50: 4840 nM
NCI-H2052, NCI-H2052
  IC50: > 30000 nM
NCI-H2087, 96 h, NCI-H2087 cells, 96 h
  IC50: > 30000 nM
NCI-H2122, 96 h, NCI-H2122 cells, 96 h
  IC50: 270 nM
NCI-H2170, 96 h, NCI-H2170 cells, 96 h
  IC50: 500 nM
NCI-H2228, 96 h, NCI-H2228 cells, 96 h
  IC50: 610 nM
NCI-H2452, NCI-H2452
  IC50: > 30000 nM
NCI-H3122, 96 h, NCI-H3122 cells, 96 h
  IC50: 390 nM
NCI-N87, 96 h
  IC50: 1470 nM
NUGC-3, 96 h, NUGC-3 cells, 96 h
  IC50: 22900 nM
NUGC-4, 96 h, NUGC-4 cells, 96 h
  IC50: 1530 nM
OCI-AML-3, OCI-AML3
  IC50: > 30000 nM
OCI-LY19, OCI-LY-19
  IC50: 950 nM
OCI-Ly7, 96 h, OCI-LY7 cells, 96 h
  IC50: 680 nM
OE19, 96 h
  IC50: > 30000 nM
OPM-2, OPM2
  IC50: 370 nM
OS-RC-2, OS-RC-2
  IC50: > 30000 nM
OVCAR-3, 96 h, OVCAR-3 cells, 96 h
  IC50: > 30000 nM
OVCAR-8, 96 h, OVCAR-8 cells, 96 h
  IC50: 1020 nM
PANC-1, PANC-1
  IC50: 2700 nM
PC-3, PC-3
  IC50: > 30000 nM
PC-9, 96 h, PC-9 cells, 96 h
  IC50: 1110 nM
PLC-PRF-5, PLC/PRF/5
  IC50: 1240 nM
Pfeiffer, 96 h, Pfeiffer cells, 96 h
  IC50: 180 nM
REH
  IC50: 310 nM
RKO
  IC50: 23600 nM
RL95-2, 96 h, RL95-2 cells, 96 h
  IC50: 420 nM
RPMI-2650, 96 h, RPMI-2650 cells, 96 h
  IC50: 810 nM
RPMI-8226, 96 h, RPMI 8226 cells, 96 h
  IC50: 750 nM
RS4-11, RS4;11
  IC50: 690 nM
RT112/84, RT112/84
  IC50: 12500 nM
RT-4, 96 h, RT4 cells, 96 h
  IC50: 830 nM
Raji, 96 h, Raji cells, 96 h
  IC50: 450 nM
Ramos, 96 h, Ramos cells, 96 h
  IC50: 760 nM
SAOS-2, Saos-2
  IC50: 820 nM
SCC-4, 96 h
  IC50: > 30000 nM
SCC-9, 96 h, SCC-9 cells, 96 h
  IC50: > 30000 nM
SCC-15, 96 h, SCC-15 cells, 96 h
  IC50: > 30000 nM
SCC-25, 96 h, SCC-25 cells, 96 h
  IC50: > 30000 nM
SF-126, 96 h, SF-126 cells, 96 h
  IC50: > 30000 nM
SF-268, 96 h, SF268 cells, 96 h
  IC50: > 30000 nM
SH-SY5Y
  IC50: > 30000 nM
SJSA-1, SJSA-1
  IC50: > 30000 nM
SK-BR-3, SK-BR-3
  IC50: 29600 nM
SK-CO-1, 96 h, SK-CO-1 cells, 96 h
  IC50: 1120 nM
SK-HEP1, 96 h, SK-HEP-1 cells, 96 h
  IC50: > 30000 nM
SK-LU-1, 96 h, SK-LU-1 cells, 96 h
  IC50: 1050 nM
SK-MEL-5, 96 h
  IC50: > 30000 nM
SK-MEL-28, 96 h
  IC50: > 30000 nM
SK-MES-1, SK-MES-1
  IC50: 1210 nM
SK-N-FI, 96 h, SK-N-FI cells, 96 h
  IC50: 1190 nM
SK-N-SH
  IC50: > 30000 nM
SK-NEP-1, 96 h, SK-NEP-1 cells, 96 h
  IC50: 1060 nM
SK-OV-3, 96 h, SK-OV-3 cells, 96 h
  IC50: > 30000 nM
SK-UT-1, 96 h, SK-UT-1 cells, 96 h
  IC50: > 30000 nM
SNU1, 96 h, SNU-1 cells, 96 h
  IC50: 10700 nM
SNU-5, 96 h
  IC50: 1830 nM
SNU-354, SNU-354
  IC50: > 30000 nM
SNU-387, SNU-387
  IC50: > 30000 nM
SNU-398, SNU-398
  IC50: 220 nM
SNU-423, 96 h, SNU-423 cells, 96 h
  IC50: > 30000 nM
SNU-449, SNU-449
  IC50: 24300 nM
SNU-475, 96 h, SNU-475 cells, 96 h
  IC50: 2510 nM
SNU-638, 96 h, SNU-638 cells, 96 h
  IC50: > 30000 nM
ST486, 96 h, ST486 cells, 96 h
  IC50: 220 nM
SU-DHL-1, SU-DHL-1
  IC50: 330 nM
SU-DHL-4, SU-DHL-4
  IC50: 1070 nM
SU-DHL-5, 96 h, SU-DHL-5 cells, 96 h
  IC50: 420 nM
SU-DHL-6, 96 h, SU-DHL-6 cells, 96 h
  IC50: 1050 nM
SU-DHL-8, SU-DHL-8
  IC50: 750 nM
SUM-159-PT, SUM159PT
  IC50: 17800 nM
SUP-B15, SUP-B15
  IC50: 1220 nM
SW13, SW-13
  IC50: 350 nM
SW48, 96 h, SW48 cells, 96 h
  IC50: > 30000 nM
SW480, SW480
  IC50: > 30000 nM
SW626, 96 h, SW626 cells, 96 h
  IC50: > 30000 nM
SW684, 96 h, SW684 cells, 96 h
  IC50: > 30000 nM
SW756, 96 h, SW756 cells, 96 h
  IC50: 28400 nM
SW780, 96 h, SW780 cells, 96 h
  IC50: 22600 nM
SW837, 96 h, SW837 cells, 96 h
  IC50: > 30000 nM
SW948, 96 h, SW948 cells, 96 h
  IC50: > 30000 nM
SW982, 96 h, SW982 cells, 96 h
  IC50: > 30000 nM
SW 1116, 96 h, SW1116 cells, 96 h
  IC50: > 30000 nM
SW1417, 96 h, SW1417 cells, 96 h
  IC50: > 30000 nM
SW1990, SW1990
  IC50: 18100 nM
SiHa, 96 h, SiHa cells, 96 h
  IC50: > 30000 nM
T47D
  IC50: > 30000 nM
T84, T84
  IC50: > 30000 nM
T-24, 96 h, T24 cells, 96 h
  IC50: > 30000 nM
TE-1, TE-1
  IC50: 9770 nM
TF-1, TF-1
  IC50: > 30000 nM
THP-1, 96 h, THP-1 cells, 96 h
  IC50: 210 nM
